Results reported in patent US10695337B2, “Piperidin-4-yl azetidine derivatives as JAK1 inhibitors” (Incyte Corporation, priority 2010, dated 2020).

Molecular target: human JAK1 (a.a. 837-1142)
Test: In vitro JAK kinase assay (HTRF, phosphorylation of a biotinylated peptide), JAK1
Format: biochemical
Details: measured at 1 mM ATP; JAK2 IC50 / JAK1 IC50
In short: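 Phosphorylation of a biotinylated peptide by purified His-tagged JAK catalytic domains (insect-cell baculovirus expression) ran 1 hr at room temperature. After stopping with EDTA, Eu-Py20 and SA-APC were bound for 40 minutes and HTRF measured.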

SMILES	IC50 Ratio JAK2/JAK1
N#CCC1(n2cc(-c3ncnc4[nH]ccc34)cn2)CN(C2CCN(C(=O)c3ccc(-c4cccnc4)c(F)c3)CC2)C1 [Example 123, {1-[1-(3-fluoro-4-pyridin-3-ylbenzoyl)piperidin-4-yl]-3-[4-(7H-pyrrolo[2,3-d]pyrimidin-4-yl)-1H-pyrazol-1-yl]azetidin-3-yl} acetonitrile]	3.8
N#CCC1(n2cc(-c3ncnc4[nH]ccc34)cn2)CN(C2CCN(C(=O)c3ccc(-c4ccccc4C#N)c(F)c3)CC2)C1 [Example 124, 4′-[(4-{3-(cyanomethyl)-3-[4-(7H-pyrrolo[2,3-d]pyrimidin-4-yl)-1H-pyrazol-1-yl]azetidin-1-yl}piperidin-1-yl)carbonyl]-2′-fluorobiphenyl-2-carbonitrile]	8.4
N#CCC1(n2cc(-c3ncnc4[nH]ccc34)cn2)CN(C2CCN(C(=O)c3ccc(-c4cccc(C#N)c4)c(F)c3)CC2)C1 [Example 125, 4′-[(4-{3-(cyanomethyl)-3-[4-(7H-pyrrolo[2,3-d]pyrimidin-4-yl)-1H-pyrazol-1-yl]azetidin-1-yl}piperidin-1-yl)carbonyl]-2′-fluorobiphenyl-3-carbonitrile]	8.1
N#CCC1(n2cc(-c3ncnc4[nH]ccc34)cn2)CN(C2CCN(C(=O)c3ccc(-c4ccc(C#N)cc4)cc3)CC2)C1 [Example 126, 4′-[(4-{3-(cyanomethyl)-3-[4-(7H-pyrrolo[2,3-d]pyrimidin-4-yl)-1H-pyrazol-1-yl]azetidin-1-yl}piperidin-1-yl)carbonyl]biphenyl-4-carbonitrile]	6.3
N#CCC1(n2cc(-c3ncnc4[nH]ccc34)cn2)CN(C2CCN(C(=O)c3ccc(-c4ccc(F)c(F)c4)c(F)c3)CC2)C1 [Example 127, (3-[4-(7H-pyrrolo[2,3-d]pyrimidin-4-yl)-1H-pyrazol-1-yl]-1-{1-[(2,3′,4′-trifluorobiphenyl-4-yl)carbonyl]piperidin-4-yl}azetidin-3-yl) acetonitrile]	4.3
N#CCC1(n2cc(-c3ncnc4[nH]ccc34)cn2)CN(C2CCN(C(=O)c3ccc(-c4cc(F)cc(C#N)c4)c(F)c3)CC2)C1 [Example 128, 4′-[(4-{3-(cyanomethyl)-3-[4-(7H-pyrrolo[2,3-d]pyrimidin-4-yl)-1H-pyrazol-1-yl]azetidin-1-yl}piperidin-1-yl)carbonyl]-2′,5-difluorobiphenyl-3-carbonitrile]	3.5
N#CCC1(n2cc(-c3ncnc4[nH]ccc34)cn2)CN(C2CCN(C(=O)c3ccc(-c4cccc5ncccc45)c(F)c3)CC2)C1 [Example 129, {1-[1-(3-fluoro-4-quinolin-5-ylbenzoyl)piperidin-4-yl]-3-[4-(7H-pyrrolo[2,3-d]pyrimidin-4-yl)-1H-pyrazol-1-yl]azetidin-3-yl} acetonitrile]	7.9
N#CCC1(n2cc(-c3ncnc4[nH]ccc34)cn2)CN(C2CCN(C(=O)c3ccc(-c4cccc5cnccc45)c(F)c3)CC2)C1 [Example 130, {1-[1-(3-fluoro-4-isoquinolin-5-ylbenzoyl)piperidin-4-yl]-3-[4-(7H-pyrrolo[2,3-d]pyrimidin-4-yl)-1H-pyrazol-1-yl]azetidin-3-yl}acetonitrile]	7.1
N#CCC1(n2cc(-c3ncnc4[nH]ccc34)cn2)CN(C2CCN(C(=O)c3ccc(-c4cccc5ccncc45)c(F)c3)CC2)C1 [Example 131, {1-[1-(3-fluoro-4-isoquinolin-8-ylbenzoyl)piperidin-4-yl]-3-[4-(7H-pyrrolo[2,3-d]pyrimidin-4-yl)-1H-pyrazol-1-yl]azetidin-3-yl} acetonitrile]	8.1
N#CCC1(n2cc(-c3ncnc4[nH]ccc34)cn2)CN(C2CCN(C(=O)c3ccc(-c4ccc5ccncc5c4)c(F)c3)CC2)C1 [Example 133, {1-[1-(3-fluoro-4-isoquinolin-7-ylbenzoyl)piperidin-4-yl]-3-[4-(7H-pyrrolo[2,3-d]pyrimidin-4-yl)-1H-pyrazol-1-yl]azetidin-3-yl} acetonitrile]	7.9
N#CCC1(n2cc(-c3ncnc4[nH]ccc34)cn2)CN(C2CCN(C(=O)c3ccc(-c4ccc5cccnc5c4)c(F)c3)CC2)C1 [Example 134, {1-[1-(3-fluoro-4-quinolin-7-ylbenzoyl)piperidin-4-yl]-3-[4-(7H-pyrrolo[2,3-d]pyrimidin-4-yl)-1H-pyrazol-1-yl]azetidin-3-yl} acetonitrile]	6.7
N#CCC1(n2cc(-c3ncnc4[nH]ccc34)cn2)CN(C2CCN(C(=O)c3ccc(-c4ccc5nccn5c4)c(F)c3)CC2)C1 [Example 135, {1-[1-(3-fluoro-4-imidazo[1,2-a]pyridin-6-ylbenzoyl)piperidin-4-yl]-3-[4-(7H-pyrrolo[2,3-d]pyrimidin-4-yl)-1H-pyrazol-1-yl]azetidin-3-yl} acetonitrile]	7.1
N#CCC1(n2cc(-c3ncnc4[nH]ccc34)cn2)CN(C2CCN(C(=O)c3ccc(-c4nc5ccccc5o4)cc3)CC2)C1 [Example 136, {1-{1-[4-(1,3-benzoxazol-2-yl)benzoyl]piperidin-4-yl}-3-[4-(7H-pyrrolo[2,3-d]pyrimidin-4-yl)-1H-pyrazol-1-yl]azetidin-3-yl}acetonitrile]	5.6
N#CCC1(n2cc(-c3ncnc4[nH]ccc34)cn2)CN(C2CCN(C(=O)c3ccc(-c4nc5ccccc5o4)c(F)c3)CC2)C1 [Example 137, {1-{1-[4-(1,3-benzoxazol-2-yl)-3-fluorobenzoyl]piperidin-4-yl}-3-[4-(7H-pyrrolo[2,3-d]pyrimidin-4-yl)-1H-pyrazol-1-yl]azetidin-3-yl} acetonitrile]	6.0
N#CCC1(n2cc(-c3ncnc4[nH]ccc34)cn2)CN(C2CC3CCC(C2)N3C(=O)c2ccc(F)c(F)c2)C1 (stereo not shown) [Example 139, {1-[8-(3,4-difluorobenzoyl)-8-azabicyclo[3.2.1]oct-3-yl]-3-[4-(7H-pyrrolo[2,3-d]pyrimidin-4-yl)-1H-pyrazol-1-yl]azetidin-3-yl}acetonitrile]	4.4
N#CCC1(n2cc(-c3ncnc4[nH]ccc34)cn2)CN(C2CC3CCC(C2)N3C(=O)c2ccc(C#N)c(F)c2)C1 (stereo not shown) [Example 140, 4-[(3-{3-(cyanomethyl)-3-[4-(7H-pyrrolo[2,3-d]pyrimidin-4-yl)-1H-pyrazol-1-yl]azetidin-1-yl}-8-azabicyclo[3.2.1]oct-8-yl)carbonyl]-2-fluorobenzonitrile]	5.4
N#CCC1(n2cc(-c3ncnc4[nH]ccc34)cn2)CN(C2CC3CCC(C2)N3C(=O)c2ccc(Cl)c(F)c2)C1 (stereo not shown) [Example 141, {1-[8-(4-chloro-3-fluorobenzoyl)-8-azabicyclo[3.2.1]oct-3-yl]-3-[4-(7H-pyrrolo[2,3-d]pyrimidin-4-yl)-1H-pyrazol-1-yl]azetidin-3-yl}acetonitrile]	6.2
N#CCC1(n2cc(-c3ncnc4[nH]ccc34)cn2)CN(C2CC3CCC(C2)N3C(=O)c2ccnc(C(F)(F)F)c2F)C1 (stereo not shown) [Example 142, {1-{8-[3-fluoro-2-(trifluoromethyl)isonicotinoyl]-8-azabicyclo[3.2.1]oct-3-yl}-3-[4-(7H-pyrrolo[2,3-d]pyrimidin-4-yl)-1H-pyrazol-1-yl]azetidin-3-yl}acetonitrile]	7.4
N#CCC1(n2cc(-c3ncnc4[nH]ccc34)cn2)CN(C2CC3CCC(C2)N3C(=O)c2ccc(C(F)(F)F)nc2)C1 (stereo not shown) [Example 143, [3-[4-(7H-pyrrolo[2,3-d]pyrimidin-4-yl)-1H-pyrazol-1-yl]-1-(8-{[6-(trifluoromethyl)pyridin-3-yl]carbonyl}-8-azabicyclo[3.2.1]oct-3-yl)azetidin-3-yl]acetonitrile]	3.5
CC1CC(N2CC(CC#N)(n3cc(-c4ncnc5[nH]ccc45)cn3)C2)CCN1C(=O)C1CCC(F)(F)CC1 (stereo not shown) [Example 151, {1-{1-[(4,4-difluorocyclohexyl)carbonyl]-2-methylpiperidin-4-yl}-3-[4-(7H-pyrrolo[2,3-d]pyrimidin-4-yl)-1H-pyrazol-1-yl]azetidin-3-yl}acetonitrile]	5.8
CC1(N2CC(CC#N)(n3cc(-c4ncnc5[nH]ccc45)cn3)C2)CCN(C(=O)c2cccc(F)c2)CC1 [Example 152, {1-[1-(3-Fluorobenzoyl)-4-methylpiperidin-4-yl]-3-[4-(7H-pyrrolo[2,3-d]pyrimidin-4-yl)-1H-pyrazol-1-yl]azetidin-3-yl}acetonitrile]	4.0
N#CCC1(n2cc(-c3ncnc4[nH]ccc34)cn2)CN(C2CCN(C(=O)Nc3ccccc3OC(F)(F)F)CC2)C1 [Example 158, 4-{3-(cyanomethyl)-3-[4-(7H-pyrrolo[2,3-d]pyrimidin-4-yl)-1H-pyrazol-1-yl]azetidin-1-yl}-N-[2-(trifluoromethoxy)phenyl]piperidine-1-carboxamide]	12.0
N#CCC1(n2cc(-c3ncnc4[nH]ccc34)cn2)CN(C2CCN(C(=O)Nc3cscc3Br)CC2)C1 [Example 159, N-(4-bromo-3-thienyl)-4-{3-(cyanomethyl)-3-[4-(7H-pyrrolo[2,3-d]pyrimidin-4-yl)-1H-pyrazol-1-yl]azetidin-1-yl}piperidine-1-carboxamide]	15.0
N#CCC1(n2cc(-c3ncnc4[nH]ccc34)cn2)CN(C2CCN(C(=O)Nc3ccccc3Cl)CC2)C1 [Example 163, N-(2-chlorophenyl)-4-{3-(cyanomethyl)-3-[4-(7H-pyrrolo[2,3-d]pyrimidin-4-yl)-1H-pyrazol-1-yl]azetidin-1-yl}piperidine-1-carboxamide]	12.0
N#CCC1(n2cc(-c3ncnc4[nH]ccc34)cn2)CN(C2CCN(C(=O)Nc3cccc(C(F)(F)F)c3)CC2)C1 [Example 166, 4-{3-(cyanomethyl)-3-[4-(7H-pyrrolo[2,3-d]pyrimidin-4-yl)-1H-pyrazol-1-yl]azetidin-1-yl}-N-[3-(trifluoromethyl)phenyl]piperidine-1-carboxamide]	5.5
